Measured values reported in patent publication US12144874B2, “Synthesis and composition of photodynamic therapeutic agents for the targeted treatment of cancer” (On Target Laboratories, LLC, priority 2015, dated 2024).
Read-outs that look alike come from different tables or passages of the source.

Columns and labels:
[1] = Activation wavelength of non-targeted PDT agents; type: physicochemical; conditions: Table 1
KB tumors = assay: Time dependent whole body fluorescence imaging of KB tumor bearing nude mice (IVIS imager); type: in vivo
Source text: FIG. 3 depicts an overlay of half body (top raw) and whole body (bottom raw) fluorescence image over white light images after adjusting the threshold. KB tumor bearing mice injected with 10 nmol of BPheid-a (1) and image with IVIS imager (ex=745 nm, em=ICG, exposure time=1 s) at different time intervals.
FIG. 13 depicts an overlay of whole body fluorescence image over white light images after adjusting the threshold. KB tumor bearing mice injected with 10 nmol of 65a and image with IVIS imager (ex=745 nm, em=ICG, exposure time=1 s) at different time intervals.
In the following examples, the in vivo efficacy of the compounds is determined using KB tumor cell xenograft in nude mice. In these studies, KB cells were implanted subcutaneously and growth of the tumors was monitored. For time dependent whole body imaging, once tumors become 250-350 mm^3, the compounds were injected via tail vein and accumulation of the PS in the tumor was monitored (over 48 hours) using fluorescence imaging using IVIS imager. Moreover, once tumors grow to […], the compounds were injected via tail vein. Three hours (3 h) after injecting with the compound, tumor was treated with laser beam (75 mW/cm^2, 137 J/cm^2, exposure diameter=7.5-8 mm) for […]. In vivo efficacy of BPheid-a was evaluated by monitoring reduction of tumor volume.

KB cells [2] = system: KB cells
subcutaneous KB tumor [3] = assay: In vivo PDT efficacy on growth of subcutaneous KB tumor xenograft in nude mice
Method: The growth of the tumor was monitored (images were taken) and tumor volume was measured using caliper.
In the following examples, the in vivo efficacy of the compounds is determined using KB tumor cell xenograft in nude mice. In these studies, KB cells were implanted subcutaneously and growth of the tumors was monitored. […] Moreover, once tumors grow to […], the compounds were injected via tail vein. […] In vivo efficacy of BPheid-a was evaluated by monitoring reduction of tumor volume.
KB cells that overexpressed folate receptor were implanted subcutaneously into female nude mice and allowed to grow to ˜50 mm^3 prior to initiation of treatment with 50 nmol of BPheid-a (1). […] In vivo efficacy of BPheid-a was evaluated by monitoring reduction of tumor volume.

[4] = rats; cited from earlier work
[5] = system: folate receptor positive cancer; conditions: cited from earlier work
[6] = dogs; cited from earlier work
KB cells [7] = assay: cells; conditions: Homo sapiens
subcutaneous KB tumor [8] = assay: In vivo PDT efficacy on growth of subcutaneous KB tumor xenograft in nude mice; conditions: 25 nmol dose, laser 75 mW/cm^2, 137 J/cm^2, 38 min, 3 h after injection
[9] = 10 nmol injected, KB tumor bearing nude mice
[10] = Table 1, non-targeted PDT agents, free drugs in DMSO, 2 h incubation, laser 6 mW/cm^2, 12 J/cm^2, 32 min, then 24 h
[11] = 50 nmol dose, laser 75 mW/cm^2, 137 J/cm^2, 38 min, 3 h after injection

Compound: Photofrin [Compound 7]
- Activation Wavelength [1]: 630 nm

Compound: CC[C@H]1c2cc3[nH]c4c(c3C)C(=O)[C@H](C(=O)OC)c4c3nc(cc4[nH]c(cc(n2)[C@@H]1C)c(C(C)=O)c4C)[C@@H](C)[C@@H]3CCC(=O)O [Compound 1, Bacteriopheophorbide-a, reference compound]
- Fluorescence in the tumor (level or comparison with other conjugates) (KB tumors; [9]): very low
- Tumor specificity / uptake in other tissues (whole body images) (KB tumors; [9]): nonspecific uptake of BPheid-a in the skin
- Time to localize / accumulate in the tumor after administration (KB tumors; 10 nmol injected, KB tumor bearing nude mice, fluorescence imaging): ~24 h
- Activation Wavelength [1]: 750 nm
- EC50 (KB cells [2]; [10]): 0.745 µM
- EC50 (KB cells [2]; Table 2, mitochondrial-targeted modified PDT agents, free drugs in DMSO, 2 h incubation, laser 32 min, then 24 h): 0.745 µM
- IC50 (KB cells [2]; Table 3, nucleus-targeted modified PDT agents, free drugs in DMSO, 2 h incubation, laser 32 min, then 24 h): 0.745 µM
- EC50 (KB cells [2]; Table 7, folate-targeted releasable BPheid-a conjugates, different soluble linkers): 0.745 µM
- EC50 (KB cells [2]; Table 9, folate conjugates releasing cationic BPheid-a analogues): 0.745 µM
- EC50 (KB cells [2]; Table 11, folate conjugates releasing anionic BPheid-a analogues): 0.745 µM
- Effect on growth of subcutaneous KB tumor, in words (subcutaneous KB tumor [3]; [11]): some effect
- KB tumor doubling time after treatment (subcutaneous KB tumor [3]; 50 nmol, laser 75 mW/cm^2, 137 J/cm^2, 38 min, 3 h after injection): < 1 week
- Tumor volume reached by the end of the two week treatment period (subcutaneous KB tumor [3]; 50 nmol, laser 38 min 3 h after injection): > 600 mm^3

Compound: OTL38
- Toxicity [4]: no toxicity
- Malignant lesions removed with the aid of OTL38 versus without it ([5]; clinical trial, image-guided surgery): approximately 5 ×
- Tumor cells removed by OTL38-guided resection ([5]; image-guided resection): approximately 95%
- Toxicity [6]: no toxicity

Compound: Visudyne [Compound 5, reference compound]
- Activation Wavelength [1]: 689 nm
- EC50 (KB cells [2]; [10]): 0.838 µM

Compound: tookad soluble [Compound 4, reference compound]
- Activation Wavelength [1]: 750 nm
- EC50 (KB cells [2]; [10]): 7.76 µM

Compound: CC[C@H]1c2cc3[nH]c4c(c3C)C(=O)C(C(=O)OC)c4c3nc(cc4[nH]c(cc(n2)[C@@H]1C)c(C(C)=O)c4C)[C@@H](C)[C@@H]3CCC(=O)NC(Cc1ccc(N(CCCl)CCCl)cc1)C(=O)NNC(=O)OCCSSC[C@H](NC(=O)[C@H](CC(=O)NCCS(=O)(=O)O)NC(=O)CC[C@H](NC(=O)c1ccc(NCc2cnc3nc(N)[nH]c(=O)c3n2)cc1)C(=O)O)C(=O)O (stereo partly shown) [Compound 112a]
- Fluorescence in the tumor (level or comparison with other conjugates) (KB tumors; [9]): more highly fluorescent
- Tumor specificity / uptake in other tissues (whole body images) (KB tumors; [9]): highly specific for FR-positive tumors
- Localization in whole body images (KB tumors; 10 nmol, image 2 h after administering): localized mainly in the tumor
- EC50 (KB cells [2]; Table 12, folate-targeted releasable BPheid-a, miscellaneous): 0.0005 µM

Compound: CC[C@@H]1c2cc3[nH]c4c(c3C)C(=O)C(C(=O)OC)c4c3nc(cc4[nH]c(cc(n2)[C@H]1C)c(C(C)=O)c4C)[C@H](C)[C@H]3CCC(=O)NCCC[C@@H](C(=O)NNC(=O)OCCSSC[C@H](NC(=O)[C@H](CC(=O)NCCS(=O)(=O)O)NC(=O)CC[C@H](NC(=O)c1ccc(NCc2cnc3nc(N)[nH]c(=O)c3n2)cc1)C(=O)O)C(=O)O)[N+](C)(C)C (stereo partly shown) [Compound 89a]
- EC50 (KB cells [2]; 2 h): 0.0037 µM
- Effect on growth of subcutaneous KB tumor, in words (subcutaneous KB tumor [3]; [11]): completely reduced the tumor

Compound: CC[C@H]1c2cc3[nH]c(c(CC(=O)OC)c4nc(cc5[nH]c(cc(n2)[C@@H]1C)c(C(C)=O)c5C)[C@@H](C)[C@@H]4CCC(=O)NCCC[C@H](NC(=O)CC[P+](c1ccccc1)(c1ccccc1)c1ccccc1)C(=O)OC(C)(C)C)c(C(=O)N[N+](C)(C)C)c3C [Compound 15]
- EC50 (KB cells [7]): 0.0476 µM

Compound: CC[C@H]1c2cc3[n-]c4c(c3C)C(=O)[C@H](C(=O)OC)c4c3nc(cc4[n-]c(cc(n2)[C@@H]1C)c(C(C)=O)c4C)[C@@H](C)[C@@H]3CCC(=O)O.[Pd+2] [Compound 2, Tookad, reference compound]
- Activation Wavelength [1]: 760 nm
- EC50 (KB cells [2]; [10]): 10.4 µM

Compound: CC[C@H]1c2cc3[nH]c4c(c3C)C(=O)C(C(=O)OC)c4c3nc(cc4[nH]c(cc(n2)[C@@H]1C)c(C(C)=O)c4C)[C@@H](C)[C@@H]3CCC(=O)NNC(=O)OCCSSC[C@H](NC(=O)[C@H](CC(=O)NCCS(=O)(=O)O)NC(=O)CC[C@H](NC(=O)c1ccc(NCc2cnc3nc(N)[nH]c(=O)c3n2)cc1)C(=O)O)C(=O)O (stereo partly shown) [Compound 65a]
- Effect on growth of subcutaneous KB tumor, in words (subcutaneous KB tumor [8]): completely cured with no recurrence during the monitored time (4 weeks)
- Effect on growth of subcutaneous KB tumor, in words (subcutaneous KB tumor [3]; [11]): completely cured with no recurrence during the monitored time (13 weeks)
- Effect on growth of subcutaneous KB tumor, in words (subcutaneous KB tumor [3]; 50 and 25 nmol doses, laser 38 min 3 h after injection): tumor regression at both doses (50 and 25 nmol)
